We go through three compounds from paper PMC8270334, “Design, Sustainable Synthesis and Biological Evaluation of a Novel Dual α2A/5-HT7 Receptor Antagonist with Antidepressant-Like Properties” (Molecules, 2021).

One assay addresses T1, human 5-HT1A receptor (Homo sapiens, UniProt P08908).
T1 construct: expressed in transfected cells; host or cells: HEK293
T1 sequence (P08908 1-422): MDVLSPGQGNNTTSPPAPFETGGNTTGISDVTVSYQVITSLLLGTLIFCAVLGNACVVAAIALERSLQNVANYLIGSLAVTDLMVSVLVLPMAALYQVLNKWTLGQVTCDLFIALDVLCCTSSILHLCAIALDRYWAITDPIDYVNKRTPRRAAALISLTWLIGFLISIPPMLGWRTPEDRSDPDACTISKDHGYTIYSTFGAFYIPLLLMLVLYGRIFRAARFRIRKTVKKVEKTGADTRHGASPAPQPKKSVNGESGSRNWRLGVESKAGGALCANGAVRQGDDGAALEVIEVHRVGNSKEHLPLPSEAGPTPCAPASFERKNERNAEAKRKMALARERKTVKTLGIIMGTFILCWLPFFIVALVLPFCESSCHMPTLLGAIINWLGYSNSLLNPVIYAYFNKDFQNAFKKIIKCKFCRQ
As to the kind of experiment: radioligand binding, [3H]-8-OH-DPAT displacement at 5-HT1AR in HEK293 cells. The conditions noted are these: HEK-293 cells, ± SEM. The procedure:
(§1) All experiments were performed using HEK293 cells stably expressing human 5-HT1A, 5-HT6, 5-HT7b, and D2L receptors or CHO-K1 cells with a plasmid containing the human 5-HT2A receptor coding sequence (PerkinElmer, Waltham, MA, USA), according to previously reported procedures. Cells were cultured in 150 cm^2 flasks and, after reaching a 90% confluence, were washed with PBS and the centrifugated (200 g) in PBS containing 0.1 mM EDTA and 1 mM dithiothreitol. Cell pellets were subsequently homogenized (in Ultra Turrax tissue homogenizer) and centrifugated twice (35,000× g for 15 min at 4 °C), with 15 min incubation at 37 °C between the centrifugations. All assays were incubated in dedicated buffers and in a total volume of 200 µL in 96-well microtitre plates for 1 h at 37 °C, except for 5-HT1AR and 5-HT2AR that was incubated for 1 h at room temperature. The process of equilibration is terminated by rapid filtration through Unifilter-96 (PerkinElmer) plates with a 96-well cell harvester and radioactivity retained on the filters was quantified on a Microbeta plate reader (PerkinElmer, USA). For displacement studies, the following assay samples containing the proper radioligand were used: 2.5 nM [^3H]-8-OH-DPAT (PerkinElmer, #NET929001MC) for 5-HT1AR; 1 nM [^3H]-ketanserin (PerkinElmer, #NET791250UC) for 5-HT2AR; 2 nM [^3H]-LSD (PerkinElmer, #NET638250UC) for 5-HT6R; and 0.8 nM [^3H]-5-CT (PerkinElmer, #NET1188U100UC) for 5-HT7R or 2.5 nM [^3H]-raclopride (PerkinElmer, #NET975001MC) for D2LR. Non-specific binding was determined using 10 μM 5-HT for 5-HT1AR and 5-HT7R, 20 μM mianserin for 5-HT2AR, 10 μM methiothepine for 5-HT6R, and 10 μM haloperidol for D2LR. […] Results were expressed as means of at least three separate experiments.

A further assay deals with T2, 5-HT1AR (Homo sapiens, UniProt P08908).
T2 construct: Eurofins Scientific, France
T2 sequence (P08908 1-422): T1 sequence (P08908 1-422)
As to the kind of experiment: functional profiling at 5-HT1AR, cAMP-based assays (Eurofins). Format: cell-based. The note with it: cAMP-based assay; for 5-HT1AR antagonist property: at 1 µM; for EC50: read-out: 5-HT1AR agonist activity EC50.

In a further assay the target is T3, human 5-HT7b receptor (Homo sapiens, UniProt P34969).
T3 construct: expressed in transfected cells; host or cells: HEK293
T3 sequence (P34969 1-432): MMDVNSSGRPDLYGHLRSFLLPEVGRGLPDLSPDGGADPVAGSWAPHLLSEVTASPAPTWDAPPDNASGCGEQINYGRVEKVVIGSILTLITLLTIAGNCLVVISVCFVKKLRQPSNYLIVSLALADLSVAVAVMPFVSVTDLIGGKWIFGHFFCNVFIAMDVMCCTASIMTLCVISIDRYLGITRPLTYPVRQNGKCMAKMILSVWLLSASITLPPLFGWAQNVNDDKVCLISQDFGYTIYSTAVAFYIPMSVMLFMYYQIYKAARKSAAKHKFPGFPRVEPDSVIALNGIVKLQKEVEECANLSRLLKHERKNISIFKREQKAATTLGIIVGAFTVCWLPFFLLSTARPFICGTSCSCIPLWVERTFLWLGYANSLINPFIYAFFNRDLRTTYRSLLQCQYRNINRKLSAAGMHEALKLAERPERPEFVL
The assay is described as follows: radioligand binding, [3H]-5-CT displacement at 5-HT7R in HEK293 cells. The conditions noted are these: read-out: Ki [nM] ± SEM 5-HT7. On the procedure:
as §1

The next assay deals with T4, α2A-adrenergic receptor (Homo sapiens, UniProt P08913).
T4 construct: host or cells: U2OS (Tango ADRA2A-bla U2OS DA)
T4 sequence (P08913 1-465): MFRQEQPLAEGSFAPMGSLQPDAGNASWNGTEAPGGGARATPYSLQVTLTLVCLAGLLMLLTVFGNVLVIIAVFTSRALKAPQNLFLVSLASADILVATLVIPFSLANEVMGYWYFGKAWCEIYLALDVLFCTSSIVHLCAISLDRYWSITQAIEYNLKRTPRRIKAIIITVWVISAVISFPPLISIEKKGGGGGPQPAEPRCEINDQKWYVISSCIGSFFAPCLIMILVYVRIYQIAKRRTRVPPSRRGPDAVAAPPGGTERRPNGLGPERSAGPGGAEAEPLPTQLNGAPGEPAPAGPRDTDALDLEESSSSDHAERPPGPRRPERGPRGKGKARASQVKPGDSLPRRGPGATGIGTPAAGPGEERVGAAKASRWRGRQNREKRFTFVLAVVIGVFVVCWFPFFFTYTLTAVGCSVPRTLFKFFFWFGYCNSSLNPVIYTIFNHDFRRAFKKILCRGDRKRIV
As to the kind of experiment: intrinsic activity (antagonist) assay, Tango ADRA2A-bla U2OS DA cells, FRET. Format: cell-based. The note with it: for Kb: antagonist, ADRA2A-bla U2OS DA cells, ± SEM, two independent experiments; for functional selectivity for α2A-AR over α2B-AR subtype: from Kb values α2A vs α2B. On the procedure: Intrinsic activity assays for α2A-adrenergic receptor were performed according to the instructions of the manufacturer of the assay kit containing the ready to use cells with stable expression of the α2A-adrenoceptor (Invitrogen, Life Technologies, Waltham, MA, USA). Tango™ ADRA2A-bla U2OS DA cells (10,000 cells/well) were plated in a 384-well format and incubated for 20 h. […] Cells were then loaded with LiveBLAzer™-FRET B/G substrate for 2 h.

For a further assay, the target named is T5, human 5-HT2A receptor (Homo sapiens, UniProt P28223).
T5 construct: host or cells: CHO-K1
T5 sequence (P28223 whole entry): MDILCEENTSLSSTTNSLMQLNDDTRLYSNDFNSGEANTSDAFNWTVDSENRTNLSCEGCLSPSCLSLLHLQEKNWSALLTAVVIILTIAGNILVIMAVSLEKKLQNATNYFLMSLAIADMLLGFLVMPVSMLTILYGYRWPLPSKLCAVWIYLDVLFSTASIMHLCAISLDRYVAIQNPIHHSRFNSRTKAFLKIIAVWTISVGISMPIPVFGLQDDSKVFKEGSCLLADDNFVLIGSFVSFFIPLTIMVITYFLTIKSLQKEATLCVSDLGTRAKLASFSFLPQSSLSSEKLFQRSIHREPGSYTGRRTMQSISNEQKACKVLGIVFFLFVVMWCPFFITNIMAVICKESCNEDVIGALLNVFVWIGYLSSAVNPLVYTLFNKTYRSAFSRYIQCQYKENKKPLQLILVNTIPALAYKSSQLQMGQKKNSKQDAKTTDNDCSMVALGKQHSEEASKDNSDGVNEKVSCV
The assay is described as follows: radioligand binding, [3H]-ketanserin displacement at 5-HT2AR in CHO-K1 cells. The note with it: ± SEM; footnote HEK-293 cells, method CHO-K1 cells. The procedure:
as §1

In another assay the test system is Albino Swiss mice. As to the kind of experiment: forced swim test. Format: in vivo. The note with it: ip; for shortening of immobility in FST in comparison to control: dose range 1–8 mg/kg; for shortening of immobility in FST in comparison to control / active dose in FST (antidepressant-like effect): 30 min before test. On the procedure:
Adult male Albino Swiss mice (CD-1, 8 weeks old, 25–30 g: Jagiellonian University Medical College, Krakow, Poland) were used in the study. Animals were housed in groups of 8 in a transparent plastic cage (382 × 220 × 150 mm) at room temperature (22 ± 2 °C), on a 12 h light/dark cycle with ad libitum access to food and water. Mice were handled for one week before starting the experimental procedures. The separate groups of animals were used in the forced swim test and in the locomotor studies. All studies were approved by the Institutional Animal Care and Ethics Committee of the Jagiellonian University (approval no.: 80/2015). […] Tested compounds were dissolved with 1% Tween 80. […] The control animals were given ip injections of the 2% DMSO in 1% Tween 80 (vehicle). The volume of vehicle or drug solutions was 10 mL/kg. The experiment was performed on mice according to the method previously described. Mice were forced to swim individually in the glass cylinders (height 25 cm, diameter 10 cm) filled with water at 24 ± 1 °C to a depth of 10 cm and left there for 6 min. Following a 2 min habituation period, total time spent immobile was recorded over the next 4 min. The animal was regarded as immobile when it remained floating passively in the water, making only small movements to keep its head above the water.

In general, Ki refers to the equilibrium dissociation constant of an inhibitor or competing ligand from its target. As usually defined, the EC50 is the concentration that produces a half-maximal response. By Kb is commonly meant the affinity of an antagonist, worked out from how it opposes an agonist. A high value points to lower antagonist affinity. In the case of `CC1(C)Cc2cccc(OCCN3CCC(NS(=O)(=O)c4ccc(F)cc4)CC3)c2O1` [Compound 6, 4-Fluoro-N-{1-[2-(2,2-dimethyl-2,3-dihydrobenzofuran-7-yloxy)ethyl]piperidin-4-yl} benzenesulfonamide], affinity at human 5-HT1A receptor was put at a Ki of 221 ± 25 nM. Moreover, on 5-HT1AR, the 5-HT1AR antagonist property entry was “no antagonist property” and the EC50 is over 4000 nM. Also, the Ki on human 5-HT7b receptor was determined as 35 ± 22 nM. For the same compound, on α2A-adrenergic receptor, the antagonist dissociation constant (Kb) is 12 ± 4 nM and the “functional selectivity for α2A-AR over α2B-AR subtype” value (“functional selectivity for α2A-AR” below) is reported as “up to seven”. Also, the Ki at human 5-HT2A receptor was 538 ± 38 nM. In the assay with Albino Swiss mice, the “shortening of immobility in FST in comparison to control” value (“shortening of immobility in FST” for short) is reported as “about 25%” and the “active dose in FST (antidepressant-like effect)” value (from here on “active dose in FST”) is 8 mg/kg.

As to `CC1(C)Cc2cccc(OCCN3CCC(NS(=O)(=O)c4cc(Cl)ccc4F)CC3)c2O1` [Compound 8, 5-Chloro-2-fluoro-N-{1-[2-(2,2-dimethyl-2,3-dihydrobenzofuran-7-yloxy)ethyl]piperidin-4-yl}benzenesulfonamide], the affinity on human 5-HT1A receptor, expressed as Ki, was 260 ± 29 nM. Besides, at 5-HT1AR, the 5-HT1AR antagonist property entry was “no antagonist property” and the EC50 is over 4000 nM. Besides, the Ki at human 5-HT7b receptor was determined as 30 ± 11 nM. At α2A-adrenergic receptor, the Kb amounted to 40 ± 11 nM and the “functional selectivity for α2A-AR” value was “four”. For the same compound, the Ki on human 5-HT2A receptor worked out at 1420 ± 98 nM. For the same compound, in the assay on Albino Swiss mice, the “shortening of immobility in FST” value is listed as “about 25%” and the “active dose in FST” value was found to be 4 mg/kg.

On human 5-HT1A receptor, `CC1(C)Cc2cccc(OCCN3CCC(NS(=O)(=O)c4cncc5ccccc45)CC3)c2O1` [Compound 13, 4-Isoquinoline-N-{1-[2-(2,2-dimethyl-2,3-dihydrobenzofuran-7-yloxy)ethyl]piperidin-4-yl}sulfonamide] gave a Ki of 260 ± 18 nM. Moreover, at 5-HT1AR, the 5-HT1AR antagonist property entry is “no antagonist property” and the EC50 was over 4000 nM. Further, at human 5-HT7b receptor, the Ki was found to be 91 ± 25 nM. For the same compound, at α2A-adrenergic receptor, the Kb stood at 31 ± 8 nM and the “functional selectivity for α2A-AR” value was “did not show any preference”. The same compound had a Ki on human 5-HT2A receptor of 1420 ± 105 nM. In the assay with Albino Swiss mice, the “shortening of immobility in FST” value was “about 25%” and the “active dose in FST” value is 1 mg/kg. The “effect in the FST” value with Albino Swiss mice (doses of 4 and 8 mg/kg) is reported as “lack of pharmacological effect”.
